Patent publication US8975398B2, “NAMPT inhibitors” (AbbVie Inc., priority 2012, dated 2015)

How the values were obtained:
[1] = biological target: NAMPT (human, recombinant, C-terminally His-tagged) (Homo sapiens, UniProt P43490); test: Time-Resolved Fluorescence Resonance Energy Transfer (TR-FRET) Binding Assay of NAMPT; settings: 6.8 nM NAMPT, 200 nM probe, equilibrated 3 hours, absence of substrates
Method in brief: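 Recombinant C-terminally His-tagged human NAMPT (6.8 nM) incubated 3 h at room temperature with 200 nM Oregon Green 488–labelled nicotinamide-competitive probe and 1 nM Tb-anti-His antibody in HEPES pH 7.5, 2% DMSO. TR-FRET ratio Em520/Em495 normalized to controls; IC50 from four-parameter logistic fit.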

NAMPT = NAMPT (Homo sapiens, UniProt P43490); test: Time-Resolved Fluorescence Resonance Energy Transfer (TR-FRET) Binding Assay of NAMPT with PRPP; settings: 2 nM NAMPT, 2 nM probe, 200 uM PRPP and 2.5 mM ATP, equilibrated 16 hours
Method in brief: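 Final mix: 2 nM NAMPT, 2 nM probe, 1 nM Tb-anti-His antibody, 200 uM PRPP, 2.5 mM ATP, 2% DMSO in 1× assay buffer. Equilibrated 16 hours before TR-FRET read, allowing possible enzymatic modification of compounds.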

Sequence of NAMPT (human, recombinant, C-terminally His-tagged) (P43490 whole entry): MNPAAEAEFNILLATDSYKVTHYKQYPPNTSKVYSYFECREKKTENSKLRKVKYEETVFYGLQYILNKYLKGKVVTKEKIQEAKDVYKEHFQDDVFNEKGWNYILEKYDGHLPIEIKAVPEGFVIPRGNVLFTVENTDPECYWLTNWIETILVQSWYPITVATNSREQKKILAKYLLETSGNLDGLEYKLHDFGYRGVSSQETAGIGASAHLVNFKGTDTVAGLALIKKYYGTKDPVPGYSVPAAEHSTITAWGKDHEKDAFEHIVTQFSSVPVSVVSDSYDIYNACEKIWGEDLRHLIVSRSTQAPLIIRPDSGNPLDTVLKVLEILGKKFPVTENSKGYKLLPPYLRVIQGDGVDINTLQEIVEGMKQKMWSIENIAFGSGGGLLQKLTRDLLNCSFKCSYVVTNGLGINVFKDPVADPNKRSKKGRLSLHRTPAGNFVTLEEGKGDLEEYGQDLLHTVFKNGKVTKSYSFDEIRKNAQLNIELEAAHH
Sequence of NAMPT (P43490 whole entry): as above

SMILES	IC50 [1] [nM]	IC50 (NAMPT) [nM]
O=C(Nc1ccc(C2CCN(C(=O)Cc3cc(F)cc(F)c3)CC2)cc1)C1CN(c2cccnn2)C1 [Example 384, N-(4-{1-[(3,5-difluorophenyl)acetyl]piperidin-4-yl}phenyl)-1-(pyridazin-3-yl)azetidine-3-carboxamide]	28.8	0.497
O=C(Nc1ccc(OC2CCN(C(=O)CC(F)(F)F)CC2)cc1)C1CN(c2ccnnc2)C1 [Example 268, 1-(pyridazin-4-yl)-N-(4-{[1-(3,3,3-trifluoropropanoyl)piperidin-4-yl]oxy}phenyl)azetidine-3-carboxamide]	119	42.1
O=C(Nc1ccc(C2CCN(C(=O)CC3CCOCC3)CC2)cc1)C1CN(c2cccnc2)C1 [Example 25, 1-(pyridin-3-yl)-N-{4-[1-(tetrahydro-2H-pyran-4-ylacetyl)piperidin-4-yl]phenyl}azetidine-3-carboxamide]	28.1	0.598
O=C(Nc1ccc(OC2CCN(C(=O)c3ccc(F)c(F)c3)CC2)cc1)C1CN(c2cccnn2)C1 [Example 234, N-(4-{[1-(3,4-difluorobenzoyl)piperidin-4-yl]oxy}phenyl)-1-(pyridazin-3-yl)azetidine-3-carboxamide]	185	0.73
O=C(Nc1ccc(C2CCN(C(=O)Cc3ccc(C(F)(F)F)cc3)CC2)cc1)C1CN(c2cccnn2)C1 [Example 371, 1-(pyridazin-3-yl)-N-[4-(1-{[4-(trifluoromethyl)phenyl]acetyl}piperidin-4-yl)phenyl]azetidine-3-carboxamide]	56.7	0.438
O=C(Nc1ccc(OC2CCN(C(=O)c3cc(F)cc(F)c3)CC2)cc1)C1CN(c2ccnnc2)C1 [Example 299, N-(4-{[1-(3,5-difluorobenzoyl)piperidin-4-yl]oxy}phenyl)-1-(pyridazin-4-yl)azetidine-3-carboxamide]	154	86.9
CC(C)C(=O)N1CCC(Oc2ccc(NC(=O)[C@H]3CCN(c4cccnc4)C3)cc2)CC1 [Example 12, (3S)-N-(4-{[1-(2-methylpropanoyl)piperidin-4-yl]oxy}phenyl)-1-(pyridin-3-yl)pyrrolidine-3-carboxamide]	1410	2.05
C=CCCC(=O)N1CCC(c2ccc(NC(=O)C3CN(c4cccnn4)C3)cc2)CC1 [Example 331, N-{4-[1-(pent-4-enoyl)piperidin-4-yl]phenyl}-1-(pyridazin-3-yl)azetidine-3-carboxamide]	24.9	0.83
COCC(=O)N1CCC(c2ccc(NC(=O)C3CN(c4cccnc4)C3)cc2)CC1 [Example 135, N-{4-[1-(methoxyacetyl)piperidin-4-yl]phenyl}-1-(pyridin-3-yl)azetidine-3-carboxamide]	33.9	0.293
O=C(Nc1ccc(C2CCN(C(=O)Cc3cccc(F)c3)CC2)cc1)C1CN(c2cccnn2)C1 [Example 367, N-(4-{1-[(3-fluorophenyl)acetyl]piperidin-4-yl}phenyl)-1-(pyridazin-3-yl)azetidine-3-carboxamide]	33.7	0.735
O=C(Nc1ccc(OC2CCN(C(=O)CC3CCOCC3)CC2)cc1)C1CN(c2cnccc2F)C1 [Example 6, 1-(4-fluoropyridin-3-yl)-N-(4-{[1-(tetrahydro-2H-pyran-4-ylacetyl)piperidin-4-yl]oxy}phenyl)azetidine-3-carboxamide]	544	2.34
O=C(Nc1ccc(C2CCN(C(=O)Cc3ccccc3Cl)CC2)cc1)C1CN(c2cccnn2)C1 [Example 369, N-(4-{1-[(2-chlorophenyl)acetyl]piperidin-4-yl}phenyl)-1-(pyridazin-3-yl)azetidine-3-carboxamide]	18.3	0.479
CC(C)(C)CC(=O)N1CCC(Oc2ccc(NC(=O)C3CN(c4ccnnc4)C3)cc2)CC1 [Example 260, N-(4-{[1-(3,3-dimethylbutanoyl)piperidin-4-yl]oxy}phenyl)-1-(pyridazin-4-yl)azetidine-3-carboxamide]	75.4	19
CC(=O)N1CCC(Oc2ccc(NC(=O)C3CN(c4ccnnc4)C3)cc2)CC1 [Example 282, N-{4-[(1-acetylpiperidin-4-yl)oxy]phenyl}-1-(pyridazin-4-yl)azetidine-3-carboxamide]	383	90
Cc1cnc(C(=O)N2CCC(c3ccc(NC(=O)C4CN(c5cccnn5)C4)cc3)CC2)cn1 [Example 378, N-(4-{1-[(5-methylpyrazin-2-yl)carbonyl]piperidin-4-yl}phenyl)-1-(pyridazin-3-yl)azetidine-3-carboxamide]	77.1	0.632
O=C(Nc1ccc(C2CCN(C(=O)C3CCCCC3)CC2)cc1)C1CN(c2cccnc2)C1 [Example 136, N-{4-[1-(cyclohexylcarbonyl)piperidin-4-yl]phenyl}-1-(pyridin-3-yl)azetidine-3-carboxamide]	20.4	0.635
CC(C)(O)C(=O)N1CCC(c2ccc(NC(=O)[C@H]3CCN(c4ccnnc4)C3)cc2)CC1 [Example 141, (3S)—N-{4-[1-(2-hydroxy-2-methylpropanoyl)piperidin-4-yl]phenyl}-1-(pyridazin-4-yl)pyrrolidine-3-carboxamide]	1240	75.2
CC(C)(C)CN1CCC(Oc2ccc(NC(=O)C3CN(c4cccnc4)C3)cc2)CC1 [Example 79, N-(4-{[1-(2,2-dimethylpropyl)piperidin-4-yl]oxy}phenyl)-1-(pyridin-3-yl)azetidine-3-carboxamide]	2690	0.824
CC[C@H](C)C(=O)N1CCC(Oc2ccc(NC(=O)C3CN(c4cccnc4)C3)cc2)CC1 [Example 32, N-[4-({1-[(2S)-2-methylbutanoyl]piperidin-4-yl}oxy)phenyl]-1-(pyridin-3-yl)azetidine-3-carboxamide]	10.2	0.284
Cc1ccc(C(=O)N2CCC(c3ccc(NC(=O)C4CN(c5cccnc5)C4)cc3)CC2)s1 [Example 126, N-(4-{1-[(5-methylthiophen-2-yl)carbonyl]piperidin-4-yl}phenyl)-1-(pyridin-3-yl)azetidine-3-carboxamide]	14.9	0.359
O=C(Nc1ccc(C2CCN(C(=O)Cc3ccccc3F)CC2)cc1)C1CN(c2cccnn2)C1 [Example 366, N-(4-{1-[(2-fluorophenyl)acetyl]piperidin-4-yl}phenyl)-1-(pyridazin-3-yl)azetidine-3-carboxamide]	35.1	0.681
O=C(Nc1ccc(OC2CN(C(=O)C3CCOC3)C2)cc1)C1CN(c2ccnnc2)C1 (stereo not drawn) [Example 208, 1-(pyridazin-4-yl)-N-(4-{[1-(tetrahydrofuran-3-ylcarbonyl)azetidin-3-yl]oxy}phenyl)azetidine-3-carboxamide]	117	49.6
O=C(Nc1ccc(C2CCN(C(=O)c3cccc(F)c3)CC2)cc1)C1CN(c2cccnn2)C1 [Example 348, N-{4-[1-(3-fluorobenzoyl)piperidin-4-yl]phenyl}-1-(pyridazin-3-yl)azetidine-3-carboxamide]	15.3	0.628
CCCC(=O)N1CCC(c2ccc(NC(=O)C3CN(c4cccnc4)C3)cc2)CC1 [Example 134, N-[4-(1-butanoylpiperidin-4-yl)phenyl]-1-(pyridin-3-yl)azetidine-3-carboxamide]	16.9	0.361
